Data as given in BindingDB's records for patent US12178809 (Boehringer Ingelheim International, 2024).

Experiments:
[1] = target: T1, Diamine oxidase [copper-containing] (Homo sapiens, UniProt P19801); test: AOC1 Biochemical Assay
T1 sequence (P19801 whole entry): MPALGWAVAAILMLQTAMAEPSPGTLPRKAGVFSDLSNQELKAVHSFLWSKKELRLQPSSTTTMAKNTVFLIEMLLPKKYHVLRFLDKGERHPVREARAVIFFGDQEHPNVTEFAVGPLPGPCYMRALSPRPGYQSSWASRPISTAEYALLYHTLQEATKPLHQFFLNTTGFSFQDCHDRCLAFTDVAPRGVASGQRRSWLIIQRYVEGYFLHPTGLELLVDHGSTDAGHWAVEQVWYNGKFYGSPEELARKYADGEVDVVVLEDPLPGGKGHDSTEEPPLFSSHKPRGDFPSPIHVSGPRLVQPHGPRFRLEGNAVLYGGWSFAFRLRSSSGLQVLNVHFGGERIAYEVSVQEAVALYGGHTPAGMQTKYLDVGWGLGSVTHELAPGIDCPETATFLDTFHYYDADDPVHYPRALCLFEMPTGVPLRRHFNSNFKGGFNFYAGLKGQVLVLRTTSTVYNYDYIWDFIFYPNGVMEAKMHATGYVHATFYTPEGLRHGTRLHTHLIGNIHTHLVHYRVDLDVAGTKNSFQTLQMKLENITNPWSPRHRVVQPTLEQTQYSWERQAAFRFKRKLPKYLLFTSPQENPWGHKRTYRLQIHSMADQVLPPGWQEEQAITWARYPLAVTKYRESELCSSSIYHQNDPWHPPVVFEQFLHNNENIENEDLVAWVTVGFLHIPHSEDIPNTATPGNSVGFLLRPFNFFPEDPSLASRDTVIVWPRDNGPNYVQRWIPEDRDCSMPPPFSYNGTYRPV
Procedure: An aliquot of 3 μL of the compound dilution is added to a 384 well plate (Optiplate, PS, flat bottom F, black, PERKIN ELMER, #6007270) in a DMSO concentration of 6.6%.An AOC1 enzyme aliquot (#8297-AO-010, R&D Systems) is thawed on ice, diluted in reaction buffer and added in a volume of 7 μL to the wells to give a final assay concentration of 1 ng/well. After incubation of inhibitor and enzyme for 30 minutes at 37° C., the enzymatic reaction is started with the addition of 10 μL of Amplex Red reaction mix (final assay concentration: 100 mM sodiumphosphate, 120 μM Amplex Red reagent (#A22177 Molecular Probes), 1.5 U/mL Horseradish Peroxidase (#P8375 Sigma-Aldrich), 200 μM putrescine (#P7505 Sigma-Alrdich), 0.05% Pluronic F-127 (#P3000MP Sigma-Aldrich), pH 7.4, 37° C.).After an incubation for 30 minutes at 37° C. the turnover of the substrate is determined directly (or after the addition of an excess of an amine-oxidase inhibitor) with a fluorescence reader (Ex 540 nm/Em 590 nm) like Envision 2104 Multilabel Reader (PERKIN ELMER).

[2] = target: T2, Amine oxidase [copper-containing] 2 (Homo sapiens, UniProt O75106); test: AOC2 Biochemical Assay
T2 sequence (O75106 whole entry): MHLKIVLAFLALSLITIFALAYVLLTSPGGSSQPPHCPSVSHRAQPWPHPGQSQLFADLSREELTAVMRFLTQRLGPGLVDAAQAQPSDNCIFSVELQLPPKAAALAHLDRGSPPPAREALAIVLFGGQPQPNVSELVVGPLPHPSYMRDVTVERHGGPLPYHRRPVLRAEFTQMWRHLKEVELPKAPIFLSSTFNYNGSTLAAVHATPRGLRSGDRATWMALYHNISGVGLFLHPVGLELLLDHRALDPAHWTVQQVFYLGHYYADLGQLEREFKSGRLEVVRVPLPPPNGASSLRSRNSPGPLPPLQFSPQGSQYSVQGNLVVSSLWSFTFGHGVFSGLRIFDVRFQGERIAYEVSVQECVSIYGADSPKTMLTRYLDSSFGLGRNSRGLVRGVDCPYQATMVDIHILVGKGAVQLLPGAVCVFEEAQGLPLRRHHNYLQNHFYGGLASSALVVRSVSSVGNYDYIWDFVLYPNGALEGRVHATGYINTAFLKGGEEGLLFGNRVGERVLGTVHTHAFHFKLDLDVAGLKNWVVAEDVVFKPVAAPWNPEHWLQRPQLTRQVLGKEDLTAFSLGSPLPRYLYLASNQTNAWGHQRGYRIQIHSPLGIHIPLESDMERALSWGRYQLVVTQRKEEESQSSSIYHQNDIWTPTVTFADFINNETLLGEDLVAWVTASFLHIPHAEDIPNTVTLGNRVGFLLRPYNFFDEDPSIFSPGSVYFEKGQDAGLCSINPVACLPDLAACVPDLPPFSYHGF
Procedure: Cells are cultured for 3 days in EMEM culture medium containing 10% FCS (#04-00-1A, Biological Industries). After washing twice with ice cold PBS, cells are lysed by mechanic homogenation and cleared supernatants are shock frozen in liquid nitrogen and stored at −80° C.For the determination of AOC2 enzymatic activity cell lysates are thawed on ice and 1:1 diluted with reaction buffer. An Aliquot of 45 μL is added to the compound dilution and incubated for 30 min at 37° C.

[3] = target: T3, Amine oxidase [copper-containing] 3 (Homo sapiens, UniProt Q16853); test: AOC3 Biochemical Assay
T3 sequence (Q16853 whole entry): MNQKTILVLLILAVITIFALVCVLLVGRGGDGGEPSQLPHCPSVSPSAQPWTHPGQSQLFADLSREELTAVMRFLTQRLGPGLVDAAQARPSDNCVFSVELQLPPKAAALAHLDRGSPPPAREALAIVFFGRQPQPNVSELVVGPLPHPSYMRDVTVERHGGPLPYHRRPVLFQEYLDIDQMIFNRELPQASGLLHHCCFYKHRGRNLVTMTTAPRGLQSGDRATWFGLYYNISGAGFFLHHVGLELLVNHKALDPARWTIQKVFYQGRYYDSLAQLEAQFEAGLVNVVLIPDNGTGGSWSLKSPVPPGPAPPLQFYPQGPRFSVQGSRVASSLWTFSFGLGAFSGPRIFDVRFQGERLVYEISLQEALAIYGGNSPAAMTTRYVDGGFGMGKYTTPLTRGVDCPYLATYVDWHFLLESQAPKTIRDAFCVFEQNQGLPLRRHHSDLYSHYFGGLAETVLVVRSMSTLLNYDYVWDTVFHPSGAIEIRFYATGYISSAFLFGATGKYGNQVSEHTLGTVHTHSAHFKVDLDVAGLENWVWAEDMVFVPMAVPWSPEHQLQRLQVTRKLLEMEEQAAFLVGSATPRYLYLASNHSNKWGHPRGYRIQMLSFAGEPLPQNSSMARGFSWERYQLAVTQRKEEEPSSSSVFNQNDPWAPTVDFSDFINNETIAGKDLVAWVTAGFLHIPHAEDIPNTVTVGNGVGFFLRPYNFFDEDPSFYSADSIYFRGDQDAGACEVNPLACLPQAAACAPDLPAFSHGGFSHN
Procedure: Recombinant CHO cells, overexpressing the human (1500 cells/well), mouse (1000 cells/well) or rat (500 cells/well) AOC3 enzyme are diluted in reaction buffer and added in a volume of 15 μL to the wells. After incubation for 20 minutes at 37° C., 2 μL of MAO substrate (dissolved in DMSO at 16 mM, adjusted to assay concentration in reaction buffer to a final assay concentration of 20 μM) is added and further incubated for 60 minutes at 37° C. The turnover of the substrate is determined by the addition of 20 μL of the detection-mix which was generated by the addition of reconstitution buffer with esterase (PROMEGA, #V1402) to the luciferine detection reagent (PROMEGA, #V1402).

In the case of `CC(C)(O)NC(=O)[C@H]1CCN(S(=O)(=O)c2ccc(OC/C(=C/F)CN)nc2)C1` [US12178809, Example 05], the IC50 [1] is reported as > 50000 nM, the IC50 [2] is reported as 629 nM and the IC50 [3] is reported as 73 nM.
